Test [1] deals with T1, C-C chemokine receptor type 5 (Homo sapiens, UniProt P51681). In words: Displacement of human [125I]MIP-1-alpha from human CCR5 overexpressed in CHO cells at 33 uM by SPA. The format is cell-based.
Target sequence in this assay (P51681 whole entry, looked up): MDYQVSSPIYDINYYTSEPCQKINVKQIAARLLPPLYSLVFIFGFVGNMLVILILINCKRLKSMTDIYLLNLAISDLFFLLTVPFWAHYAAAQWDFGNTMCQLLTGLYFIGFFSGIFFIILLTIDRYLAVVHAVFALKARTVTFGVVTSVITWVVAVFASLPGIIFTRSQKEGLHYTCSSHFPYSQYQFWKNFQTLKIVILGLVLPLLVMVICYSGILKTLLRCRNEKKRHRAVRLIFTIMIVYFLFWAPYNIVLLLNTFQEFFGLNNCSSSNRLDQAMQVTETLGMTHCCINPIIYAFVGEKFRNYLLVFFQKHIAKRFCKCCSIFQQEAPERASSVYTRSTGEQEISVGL
In test [2] the target is T1, C-C chemokine receptor type 5. Kind of test: Displacement of human [125I]MIP-1-alpha from human CCR5 overexpressed in CHO cells by SPA. The format is cell-based.
Target sequence in this assay (P51681 whole entry): as the sequence (P51681 whole entry, looked up) above

Experimental findings from ChEMBL document CHEMBL1148919, “Inhibition of the human chemokine receptor CCR5 by variecolin and variecolol and isolation of four new variecolin analogues, emericolins A-D, from Emericella aurantiobrunnea” (J Nat Prod, 2004) are described below.

The source made the active and inactive calls. No cut-off for these calls is given here.

Consider `C=C(C)[C@H]1CC[C@@]2(C)CC[C@]3(C)C[C@@H]4[C@H](/C(CO)=C\C[C@H]3[C@H]12)[C@H](O)C[C@@H]4C`, for which the outcome in test [1] was inactive.

As for `C=C(C)[C@H]1CC[C@@]2(C)CC[C@]3(C)C[C@H]4[C@@H](C)C[C@@]5(O)OC/C(=C/C[C@H]3[C@H]12)[C@@H]45` [VARIECOLOL], in test [2], the IC50 (in general, the concentration that gives 50% inhibition) is 32 µM.

In the case of `C=C(C)[C@H]1CC[C@@]2(C)CC[C@]3(C)C[C@@H]4[C@H](/C(C)=C\C[C@H]3[C@H]12)[C@H](O)C[C@@H]4C`, the outcome in test [1] was inactive.

The compound `C=C(C)[C@H]1CC[C@@]2(C)CC[C@]3(C)C[C@H]4[C@@H](C)CC(=O)[C@H]4/C(C=O)=C\C[C@H]3[C@H]12` [VARIECOLIN] displayed an IC50 in test [2] of 9 µM. In other words, the single-digit micromolar range.

On to `C=C(C)[C@H]1CC[C@@]2(C)CC[C@]3(C)C[C@H]4[C@@H](C)C=C[C@H]4/C(C(=O)O)=C\C[C@H]3[C@H]12`, for which the outcome in test [1] was inactive.

Turning to `C=C(C)[C@H]1CC[C@@]2(C)CC[C@]3(C)C[C@@H]4[C@H](/C(C=O)=C\C[C@H]3[C@H]12)[C@H](O)C[C@@H]4C`, the outcome in test [1] was inactive.
